Laboratory results as given in patent publication US8497352B2, “Use of Wnt5-α peptide derivates for the treatment of melanoma and gastric cancer” (Wntresearch AB, priority 2008, dated 2013).
“Also recorded” adds a separate entry of the source. Bridges are numbered along the chain shown (N, C = ends). Where no end group is shown, it is not given here. The star is where a group is joined. Boc = CC(C)(C)OC(=O)*

Legend:
Type in all cases: cell-based, human
[1] = tested on: A2058 melanoma cells; test: BD Matrigel invasion chamber assay, A2058 cells
Description: (§1) Cell invasion was analyzed using the BD Matrigel™ invasion chamber assay (BD Biosciences, Bedford, Mass.). Prior to the initiation of each experiment, the cells were detached with Versene and re-suspended as single cells in serum-free RPMI medium. As indicated, cells were pre-incubated with the Box5 peptide (100 μM) or control solvent for 40 min with continuous agitation. An aliquot of the cell suspension containing 25,000 cells and 100 μM Box5 or control solvent was then added to the upper transwell chamber, and the lower chamber was filled with serum-containing (10%) medium. The invasion chambers were shaken horizontally for 5 min to ensure even distribution of the cells in suspension and subsequently across the membrane surface. The cells were allowed to invade for the periods of time indicated at 37° C. in a humidified atmosphere of 5% CO2. The medium was discarded and cells were fixed in 4% paraformaldehyde for 10 min. The cells were stained with 0.5% crystal violet in 20% methanol for 10 min and the non-invading cells on the inner side of the membrane were removed with a cotton-tipped applicator. The membrane was cut out of the chamber using a scalpel blade and the stained cells on the lower chamber side of the membrane were counted.

[2] = tested on: Wnt-5a-induced Ca^2+ signaling; test: Determination of cytosolic free calcium levels (fura-2) in A2058 cells; details: for Cytosolic Ca^2+ response in A2058 cells, control G-protein coupled receptor ligands: endothelin-1 10 nM, charbacol 5 μM
Description: Cells grown on a glass cover slip were incubated with 4 μM fura-2/AM in culture medium for 30 minutes at 37° C. (Dejmek et al., 2006). After fura-2 loading of the cells, the cover slips were washed and mounted in a specially designed chamber to which was added a calcium-containing medium (136 mM NaCl, 4.7 mM KCl, 1.2 mM MgSO4, 1.1 mM CaCl2, 1.2 KH2PO4, 5 mM NaHCO3, 5.5 mM glucose and 20 mM Hepes, pH 7.4). The chamber was then placed in a system consisting of a NIKON Diaphot microscope connected to a Photon Technology International (PTI) imaging system. The cells were first allowed to rest for 10 minutes before any stimulation was performed. Fura-2 fluorescence was then recorded continuously from the cells before and after the stimulations with either Wnt-5a, endothelin-1 or charbacol (as indicated in the legend to FIG. 8) using an excitation wavelength rapidly alternating between 340 and 380 nm, while the emission wavelength was set at 510 nm. The fluorescence intensity ratios (340/380 nm) were subsequently calculated and analyzed using the PTI Image Master Software. Statistical analysis—The Student's t-test for unpaired samples was used to analyze differences in the experiments, where *=p<0.05, **=p<0.01, and ***=p<0.001

[3] = tested on: A2058 melanoma cells; test: Wound-healing assay (migration), A2058 cells
Description: (§2) Cells were plated in 12 well plates and allowed to grow into a confluent layer in complete RPMI (for A2058 cells) or complete McCoy's 5A medium (for HTB63 cells). As indicated, cells were pre-incubated with the Box5 peptide (100 μM) or control solvent for 40 min with continuous agitation. A wound was then inflicted by making a scratch through the confluent layer of cells with a pipette tip. During the migration period of the assay, cells were incubated either in serum-free medium or in the case of HTB63 cells in their own serum-free-conditioned medium collected from cells cultured for 48 h and used within 2 days after collection. The exact conditions of each experiment are described above. To avoid loss of activity, cell medium was changed after 24 hours. A picture for each scratch was taken in the same area of cells at 0, 16, 24, 40 and 48 hours, and wound healing was measured as percentage of wound area closed. For each experimental condition wound healing was analysed in triplicate. All data were based on 3 to 8 separate experiments as indicated.

[4] = tested on: A2058 melanoma cells; test: Cell adhesion assay, A2058 cells; details: TGF-β1, 60 min adhesion
Description: Cells pre-treated and stimulated as described below were detached with Versene, re-suspended in serum-free RPMI medium and samples containing 30,000 cells from each treatment group were added to each well of a 96-well plate The cells were allowed to adhere for 60 min at 37° C. in a humidified atmosphere of 5% carbon dioxide after which the non-adherent cells were washed away with PBS. The adherent cells were fixed in 1% glutaraldehyde for 10 min at room temperature and then stained with 0.5% crystal violet in 20% methanol for 10 min. Finally the stain from each group of cells was dissolved in 50% acetic acid. The amount of dissolved stain from each well was thereafter measured in a Fluostar plate reader (BMG Lab Technologies GmbH, Offenberg, Germany) at 544 nm. The individual samples from each separate experiment were analysed in quadruplicate and the accumulated data were based on 5 separate experiments. The results are illustrated in FIG. 4. • A) A2058 melanoma cells were stimulated with the indicated concentrations of Wnt-5a, detached with Versene and resuspended as single cells in serum-free medium in the presence or absence of recombinant Wnt-5a at the indicated concentrations. Cells were then allowed to adhere in a 96-well plate. After a period of 60 min the non-adherent cells were washed away while the adherent cells were stained and their number determined. This number is presented as a percentage of the control (no Wnt-5a) stimulation (FIG. 4A) • B) A2058 melanoma cells were cultured to confluence in a 12-well plate after which a scratch was inflicted in each well, the medium was changed to fresh serum-free medium lacking (closed circles) or containing 0.2 μg/ml Wnt-5a (open squares). (FIG. 4B) • C) A2058 melanoma cells were cultured to confluence in a 12-well plate after which a scratch was inflicted to each well, the medium was changed to fresh serum-free medium in the absence of any additive (closed circle), the presence of 0.2 μg/ml Wnt-5a alone (open squares) or the presence of 0.2 μg/ml Wnt-5a with 100 μM Box5 (open triangle). (FIG. 4C) • D) HTB63 melanoma cells were cultured to confluence in a 12-well dish after which a scratch was inflicted to each well, the medium was changed to fresh serum-free medium (closed circle), conditioned medium (open squares) or conditioned medium supplemented with 100 μM Box5 (open triangle). To record changes in migration in panels B-D, a picture was taken from each scratch/well from the same area of cells after 0, 16, 24, 40 or 48 hours, and the wound-healing was expressed as percentage of wound area closed. […] The cells were then allowed to invade for 24 hours after which the attached cells on the lower side of the membrane were counted. […]

[5] = tested on: Wnt-5a protein expression; test: Wnt-5a protein expression in A2058 cells, Western blot
Description: (§3) The cells were either directly lysed in 1× Laemmli buffer containing DTT and boiled for 10 min, or lysed in buffer containing 50 mM Tris-HCl (pH 7.5), 1% Triton X-100, 100 mM NaCl, 10 mM MgCl2, 20% glycerol, 1 mM Na3VO4, and protease inhibitors (20 μg/ml aprotinin, 1 μg/ml leupeptin, 2.5 mM benzamidine, and 2 mM pefabloc). Cell treated with lysis buffer were centrifuged at 15,000 rpm for 5 min at 4° C. The protein content in each sample was determined and adjusted to ensure equal loading of protein in each lane. Thereafter, 50 mM DTT and 5× concentrated Laemmli buffer was added and the samples boiled for 5 min. The samples were separated by SDS polyacrylamide gel electrophoresis and subsequently transferred to PVDF membranes. For immunoblotting the membranes were blocked in PBS supplemented with 0.2% Tween 20 and 1% non-fat milk for Wnt-5a or 3% non-fat milk as for all other antibodies for 1 h. Thereafter the membranes were incubated for 1 h at room temperature or overnight at 4° C. with the indicated primary Ab (1:25,000 for β-actin; 1:1,000 for Wnt-5a and 1:1,000 for TGF-β1) in 2% non-fat milk or 1.5% BSA. After extensive washing in PBS with 0.2% Tween, the membranes were incubated for 1 h with a horseradish peroxidase-conjugated secondary Ab in 2% non-fat milk or 1.5% BSA and again extensively washed. Finally, the Ab-antigen complexes were detected using enhanced chemiluminescence. […]

[6] = tested on: HTB63 melanoma cells; test: BD Matrigel invasion chamber assay, HTB63 cells; details: 100 μM Box5, 24 hours
Description: as §1

[7] = tested on: HTB63 melanoma cells; test: Wound-healing assay (migration), HTB63 cells; details: 100 μM peptide in conditioned medium containing secreted Wnt-5a
Description: as §2

[8] = tested on: PKC; test: MARCKS phosphorylation (PKC activity) in A2058 cells, Western blot; details: 100 μM Box5 overnight, rWnt-5a 0.2 μg/ml
Description: as §3, with “Thereafter the membranes were incubated for 1 h at room temperature or overnight at 4° C. with the indicated primary Ab (1:25,000 for β-actin; 1:1,000 for Wnt-5a and 1:1,000 for TGF-β1) in 2% non-fat milk or 1.5% BSA. After extensive washing in PBS with 0.2% Tween, the membranes were incubated for 1 h with a horseradish peroxidase-conjugated secondary Ab in 2% non-fat milk or 1.5% BSA and again extensively washed.” left out
In the present study the level of PKC auto-phosphorylation (Weeraratna et al., 2002, Dissanayake et al., 2007) was not estimated since its relation to PKC kinase activity is unclear. Instead the effects of Wnt-5a and Box5 on the phosphorylation of the endogenous PKC substrate MARCKS were analyzed as a direct means of estimating the activity level of PKC in the melanoma cells. […]

CC(=O)OCOC(=O)CN(CC(=O)OCOC(C)=O)c1ccc(C)cc1OCCOc1cc(C)ccc1N(CC(=O)OCOC(C)=O)CC(=O)OCOC(C)=O [MAPT/AM, reference compound]
Effect on pro-invasive effect of Wnt-5a on A2058 cells ([1]; 10 μM MAPT/AM 30 minutes pre-incubation, then 1 μM for 24 hours): completely abolished | Effect on Wnt-5a-stimulated cytosolic Ca^2+ signal ([2]; 10 μM MAPT/AM for 30 minutes, rWnt-5a 0.1 μg/ml): inhibited

C[N+](C)(C)CCOC(N)=O [carbachol, reference compound]
Cytosolic Ca^2+ response in A2058 cells, control G-protein coupled receptor ligands [2]: prompt responses

TGF-β1: human recombinant TGF-β1 protein from R&D Systems
Effect on migration of A2058 cells in the invasion assay ([1]; 5 ng/ml TGF-β1, 24 hours): inhibited | Effect on migration of A2058 cells ([3]; 5 ng/ml TGF-β1): increased | Concentration giving maximal effect on adhesion of A2058 cells [4]: 5 ng/mL | Effect on adhesive capacity of A2058 cells [4]: stimulated | Concentration giving near maximal Wnt-5a expression ([5]; TGF-β1): 5 ng/mL | Wnt-5a protein expression in A2058 cells ([5]; different concentrations of recombinant TGF-β1, 36 h): increased expression

endothelin-1: G-protein coupled control receptor ligand from Sigma Aldrich (CSCSSLMDKECVYFCHLDIIW; disulfide 1-15, 3-11; ends not checked; UniProt P05305 53-73, looked up) [reference compound]
Cytosolic Ca^2+ response in A2058 cells, control G-protein coupled receptor ligands [2]: prompt responses

t-boc-Met-Asp-Gly-Cys-Glu-Leu (Boc-MDGCEL) [Box5, novel Wnt-5a-derived N-butyloxycarbonyl hexapeptide (Met-Asp-Gly-Cys-Glu-Leu), Wnt-5a antagonist]
Effect on Wnt-5a-induced invasion of A2058 cells ([1]; 100 μM Box5, 0.2 μg/ml Wnt-5a, 24 hours): abolished | Effect on basal invasion of A2058 cells ([1]; 100 μM Box5, 24 hours): no effect | Effect on invasion of HTB63 cells (endogenous Wnt-5a) [6]: inhibit | Effect on charbacol-induced Ca^2+ signaling ([2]; 100 μM Box5, charbacol 5 μM): no significant effect | Effect on endothelin-1-induced Ca^2+ signaling ([2]; 100 μM Box5, endothelin-1 10 nM): no significant effect | Inhibition of Wnt-5a-induced Ca^2+ signal (peak values) ([2]; 100 μM Box5 overnight pre-incubation, 0.1 μg/ml Wnt-5a): more than 70% | Effect on migration of HTB63 cells [7]: inhibits | Effect on Wnt-5a-induced MARCKS phosphorylation [8]: inhibited; also recorded: abolished | Effect on Wnt-5a-induced migration of A2058 cells ([3]; 100 μM Box5, 0.2 μg/ml Wnt-5a, wound area closed over 0-48 hours): abolished | Effect on intrinsic (basal) migration of A2058 cells ([3]; 100 μM Box5, no Wnt-5a, wound area closed over 0-48 hours): no effect | Effect on TGF-β1-induced migration of A2058 cells ([3]; 100 μM Box5 pre-incubated 40 minutes, 5 ng/ml TGF-β1): abolished; also recorded: blocked

B1: Wnt-3a: human recombinant Wnt-3a protein, canonical Wnt ligand (protein, UniProt P56704 19-352, looked up)
Protein Wnt-3a: SYPIWWSLAVGPQYSSLGSQPILCASIPGLVPKQLRFCRNYVEIMPSVAEGIKIGIQECQHQFRGRRWNCTTVHDSLAIFGPVLDKATRESAFVHAIASAGVAFAVTRSCAEGTAAICGCSSRHQGSPGKGWKWGGCSEDIEFGGMVSREFADARENRPDARSAMNRHNNEAGRQAIASHMHLKCKCHGLSGSCEVKTCWWSQPDFRAIGDFLKDKYDSASEMVVEKHRESRGWVETLRPRYTYFKVPTERDLVYYEASPNFCEPNPETGSFGTRDRTCNVSSHGIDGCDLLCCGRGHNARAERRREKCRCVFHWCCYVSCQECTRVYDVHTCK
Stimulation of invasion of A2058 cells ([1]; 0.1 μg/ml Wnt-3a, 24 hours): not seen
